For test [1], the target named is T1, USP8^CD (purified catalytic domain of USP8) (Homo sapiens, UniProt P40818).
T1 construct: the purified catalytic domain of USP8 (USP8^CD, in-house purified); made in house; host or cells: E. coli BL21 Gold
T1 sequence (P40818 777-1109 limits assumed): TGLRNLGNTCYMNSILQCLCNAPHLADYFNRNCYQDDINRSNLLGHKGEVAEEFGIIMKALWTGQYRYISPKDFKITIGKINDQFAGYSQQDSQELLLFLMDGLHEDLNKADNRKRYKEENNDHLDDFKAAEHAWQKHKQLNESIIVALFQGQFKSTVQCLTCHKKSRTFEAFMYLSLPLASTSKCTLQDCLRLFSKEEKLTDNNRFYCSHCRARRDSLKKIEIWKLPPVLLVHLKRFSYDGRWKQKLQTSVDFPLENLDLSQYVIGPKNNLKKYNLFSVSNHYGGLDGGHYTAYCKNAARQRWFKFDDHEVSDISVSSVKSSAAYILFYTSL
In words: Inhibition of purified USP8^CD enzymatic activity (Ub-AMC or Ub-Rho substrate). Particulars: for inhibition at 1 µM: 1 μM compound; for inhibition at 5 µM: 5 μM compound; for inhibition at 25 µM: 25 μM compound; for inhibition at 50 µM: 50 μM compound; for inhibition at 0.01 µM: 0.01 μM compound; for inhibition at 0.05 µM: 0.05 μM compound; for inhibition at 0.1 µM: 0.1 μM compound; for inhibition at 0.5 µM: 0.5 μM compound; for inhibition at 10 µM: 10 μM compound; for IC50: read-out: IC50 USP8 CD. The format is biochemical. As to the method:
(§1) USP2CD or USP8CD were expressed in E. coli BL21 Gold. Cells were grown in LB Miller to mid-log phase and induced by addition of 0.5 mM IPTG for USP2CD for 5 h at 20° C., while 1 mM IPTG was added for USP8CD for 3 h at 37° C. Then, cells were harvested and frozen at −80° C.
For His-tagged USP8CD, cells were resuspended in buffer A (50 mM TRIS pH 8.0, 500 mM NaCl, 2 mM Imidazole) and lysed using a sonicator. The lysate was clarified by centrifugation and applied to Ni Sepharose6 Fast Flow resin (GE Healthcare). The resin was sequentially washed first with buffer A containing 10 mM Imidazole then with buffer A containing 20 mM Imidazole, and finally with buffer A containing 50 mM Imidazole. Protein sample was eluted from the resin using buffer A containing 300 mM Imidazole. The eluted protein was buffer exchanged by gel-filtration on a Superdex 200 10/300 GL column (GE Healthcare) equilibrated in Buffer B (20 mM HEPES pH 7.5, 300 mM NaCl, 2 mM dithiothreitol (DTT)).
(§2) Enzymatic assay was performed in a HEPES buffer (50 mM pH7.6 1 mM DTT, 2% glycerol, 0.5 mM EDTA) or in a Tris buffer (40 mM pH7.4 1 mM DTT, 5% glycerol, 0.05 mg/ml BSA) respectively, following manufacturer's instructions. Compounds were added to the reaction mixture just prior to the substrate. The enzymatic reaction kinetics was monitored through the apparition of fluorescence due to the hydrolysis of the peptidyl Ub-AMC or Ub-Rho bound over 20 or 30 minutes.
(§3) Medium value out of duplicates is reported.

The target of test [2] is T2, USP2^CD (purified catalytic domain of USP2) (Homo sapiens, UniProt O75604).
T2 construct: The purified catalytic domain of USP2 (USP2^CD, in-house purified); His; made in house; host or cells: E. coli BL21 Gold
T2 sequence (O75604 267-599 limits assumed): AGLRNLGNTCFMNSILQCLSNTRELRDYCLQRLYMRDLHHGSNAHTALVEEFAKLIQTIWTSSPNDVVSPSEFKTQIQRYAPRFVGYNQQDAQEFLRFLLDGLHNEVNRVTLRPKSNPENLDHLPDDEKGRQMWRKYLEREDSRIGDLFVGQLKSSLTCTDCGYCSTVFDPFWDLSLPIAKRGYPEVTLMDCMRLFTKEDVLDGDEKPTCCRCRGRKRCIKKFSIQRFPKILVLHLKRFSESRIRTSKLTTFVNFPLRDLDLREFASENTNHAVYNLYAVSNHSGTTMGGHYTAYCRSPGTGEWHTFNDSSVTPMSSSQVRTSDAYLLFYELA
In words: Inhibition of purified USP2^CD enzymatic activity (Ub-AMC or Ub-Rho substrate). The following applies: for inhibition at 1 µM: 1 μM compound; for inhibition at 5 µM: 5 μM compound; for inhibition at 25 µM: 25 μM compound; for inhibition at 50 µM: 50 μM compound; for inhibition at 0.01 µM: 0.01 μM compound; for inhibition at 0.05 µM: 0.05 μM compound; for inhibition at 0.1 µM: 0.1 μM compound; for inhibition at 0.5 µM: 0.5 μM compound; for inhibition at 10 µM: 10 μM compound; for IC50: read-out: IC50 USP2 CD. The class given is biochemical. How it is done:
as §1
For His-tagged USP2CD, cells were resuspended in buffer C (10 mM TRIS pH 8.0, 100 mM NaCl, 10 mM Imidazole) and lysed using a sonicator. The lysate was clarified by centrifugation and applied to Ni Sepharose6 Fast Flow resin (GE Healthcare). The resin was sequentially washed with buffer C, then with buffer C containing 50 mM Imidazole. Protein sample was eluted from the resin using buffer C containing 250 mM Imidazole. The eluted protein was buffer exchanged by gel-filtration on a Superdex 200 10/300 GL column (GE Healthcare) equilibrated in Buffer D (15 mM Bis-TRIS pH 6.0, 100 mM NaCl, 1 mM dithiothreitol (DTT)).
as §2, §3

Where [3] appears, read: Ub-AMC substrate at 1 μM, Table 2b.
Where [4] appears, read: Ub-Rhodamine substrate at 0.1 μM, Table 2c.

Read-outs that look alike come from different tables or passages of the source. A value given as a limit tells only on which side of the number the result lay.

As a reminder, the inhibition is the drop in the measured response relative to a control, in per cent. As to `O=C1c2ccccc2C(=O)c2nc(CS(=O)(=O)c3cccc(C(F)(F)F)c3)c(CS(=O)(=O)c3cccc(C(F)(F)F)c3)nc21` [OVM17], in test [1] (Table 1b), the inhibition at 1 µM came to 25%, the inhibition at 5 µM turned out to be 33%, the inhibition at 25 µM is 68% and the inhibition at 50 µM came out at 85%. Moreover, in test [2] (Table 1b), the inhibition at 1 µM is -11%, the inhibition at 5 µM worked out at 9%, the inhibition at 25 µM came to 27% and the inhibition at 50 µM came out at 25%.

As usually defined, the IC50 is the concentration that gives 50% inhibition. For `O=C1c2ccccc2C(=O)c2nc(CS(=O)(=O)c3ccc4c(c3)OCCO4)c(CS(=O)(=O)c3ccc4c(c3)OCCO4)nc21` [OVM19], in test [1] (Table 1d), the inhibition at 0.01 µM is -22%, the inhibition at 0.05 µM is -5%, the inhibition at 0.1 µM is -9% and the inhibition at 0.5 µM was determined as 17%. Further, in test [1] (Table 1d), the inhibition at 1 µM came out at 44%, the inhibition at 5 µM was found to be 46% and the inhibition at 10 µM came to 54%. Further, in test [1] (Table 1b), the inhibition at 1 µM was 53%, the inhibition at 5 µM is 61%, the inhibition at 25 µM came out at 76% and the inhibition at 50 µM amounted to 77%. Also, the IC50 in test [1] (setting [3]) was determined as 7500 nM. In test [2] (Table 1c), the inhibition at 0.01 µM is -19%, the inhibition at 0.05 µM is -14%, the inhibition at 0.1 µM is 13% and the inhibition at 0.5 µM was -1%. In test [2] (Table 1c), the inhibition at 1 µM came out at 9%, the inhibition at 5 µM is -3% and the inhibition at 10 µM is 11%. In addition, in test [2] (Table 1b), the inhibition at 1 µM was found to be 20%, the inhibition at 5 µM stood at 25%, the inhibition at 25 µM amounted to 21% and the inhibition at 50 µM was determined as 18%. For the same compound, in test [2] (setting [3]), the IC50 is more than 10000 nM.

`O=C1c2ccccc2C(=O)c2nc(CS(=O)(=O)c3cccc(Cl)c3)c(CS(=O)(=O)c3cccc(Cl)c3)nc21` [OVM15]: in test [1] (Table 1d), the inhibition at 0.01 µM came to 24%, the inhibition at 0.05 µM was 16%, the inhibition at 0.1 µM came out at 14% and the inhibition at 0.5 µM was 18%. Further, in test [1] (Table 1d), the inhibition at 1 µM is 64%, the inhibition at 5 µM is 52% and the inhibition at 10 µM was determined as 51%. In addition, in test [1] (Table 1b), the inhibition at 1 µM is 68%, the inhibition at 5 µM worked out at 51%, the inhibition at 25 µM was 70% and the inhibition at 50 µM came to 83%. The IC50 in test [1] (setting [3]) stood at 400 nM. For the same compound, the IC50 in test [1] (setting [4]) worked out at 400 nM. In addition, in test [2] (Table 1c), the inhibition at 0.01 µM came out at 19%, the inhibition at 0.05 µM was 3%, the inhibition at 0.1 µM stood at 3% and the inhibition at 0.5 µM amounted to 23%. Moreover, in test [2] (Table 1c), the inhibition at 1 µM was found to be 37%, the inhibition at 5 µM is -10% and the inhibition at 10 µM stood at 17%. For the same compound, in test [2] (Table 1b), the inhibition at 1 µM amounted to 0%, the inhibition at 5 µM was 1%, the inhibition at 25 µM was 16% and the inhibition at 50 µM was determined as 30%. For the same compound, the IC50 in test [2] (setting [3]) is more than 10000 nM.

As for `CS(=O)(=O)Cc1nc2c(nc1CS(C)(=O)=O)C(=O)c1ccccc1C2=O` [VIN6076], in test [1] (Table 1d), the inhibition at 0.01 µM was 27%, the inhibition at 0.05 µM stood at 14%, the inhibition at 0.1 µM was found to be 30% and the inhibition at 0.5 µM was determined as 47%. Besides, in test [1] (Table 1d), the inhibition at 1 µM was determined as 85%, the inhibition at 5 µM was found to be 90% and the inhibition at 10 µM is 98%. Also, in test [1] (Table 1b), the inhibition at 1 µM is 77%, the inhibition at 5 µM turned out to be 100%, the inhibition at 25 µM was 106% and the inhibition at 50 µM stood at 103%. Besides, in test [1] (setting [3]), the IC50 is 500 nM. In test [1] (setting [4]), the IC50 was 10 nM. Besides, in test [2] (Table 1c), the inhibition at 0.01 µM turned out to be 17%, the inhibition at 0.05 µM is -7%, the inhibition at 0.1 µM is 4% and the inhibition at 0.5 µM amounted to 6%. For the same compound, in test [2] (Table 1c), the inhibition at 1 µM turned out to be 57%, the inhibition at 5 µM came out at 19% and the inhibition at 10 µM turned out to be 56%. In test [2] (Table 1b), the inhibition at 1 µM was found to be 23%, the inhibition at 5 µM is 66%, the inhibition at 25 µM worked out at 95% and the inhibition at 50 µM came out at 97%. Moreover, the IC50 in test [2] (setting [3]) was more than 10000 nM. Moreover, in test [2] (setting [4]), the IC50 is 650 nM.

Turning to `O=C1c2ccccc2C(=O)c2nc(CS(=O)(=O)c3ccc(Br)s3)c(CS(=O)(=O)c3ccc(Br)s3)nc21` [OVM16], in test [1] (Table 1b), the inhibition at 1 µM turned out to be 10%, the inhibition at 5 µM stood at 56%, the inhibition at 25 µM was found to be 92% and the inhibition at 50 µM came to 104%. Also, in test [2] (Table 1b), the inhibition at 1 µM was 1%, the inhibition at 5 µM is 26%, the inhibition at 25 µM stood at 42% and the inhibition at 50 µM is 80%.

Consider `O=C1c2ccccc2C(=O)c2nc(CS(=O)(=O)c3cccc(F)c3)c(CS(=O)(=O)c3cccc(F)c3)nc21` [OVM13], for which, in test [1] (Table 1d), the inhibition at 0.01 µM is -22%, the inhibition at 0.05 µM was 3%, the inhibition at 0.1 µM was -9% and the inhibition at 0.5 µM amounted to 44%. Moreover, in test [1] (Table 1d), the inhibition at 1 µM was 65%, the inhibition at 5 µM came out at 76% and the inhibition at 10 µM is 35%. For the same compound, in test [1] (Table 1b), the inhibition at 1 µM was 60%, the inhibition at 5 µM worked out at 88%, the inhibition at 25 µM amounted to 102% and the inhibition at 50 µM came out at 94%. Moreover, in test [1] (setting [3]), the IC50 was 400 nM. Besides, the IC50 in test [1] (setting [4]) came to 400 nM. Moreover, in test [2] (Table 1c), the inhibition at 0.01 µM stood at 9%, the inhibition at 0.05 µM was -20%, the inhibition at 0.1 µM was -32% and the inhibition at 0.5 µM is -3%. For the same compound, in test [2] (Table 1c), the inhibition at 1 µM was -6%, the inhibition at 5 µM is 10% and the inhibition at 10 µM worked out at 1%. In test [2] (Table 1b), the inhibition at 1 µM stood at 17%, the inhibition at 5 µM stood at 48%, the inhibition at 25 µM was determined as 66% and the inhibition at 50 µM was 41%. In test [2] (setting [3]), the IC50 is more than 10000 nM.

The values above are taken from US11306063B2, “Heterocyclic naphthoquinones derivatives for use in the treatment of cancers including Cushing disease” (Commissariat a l'Energie Atomique et aux Energies …, priority 2016, dated 2022).
